Results as given in patent publication US6670144B1 (priority 1999, dated 2003).
Where no end group is shown, it is not given here.

Legend:
Chk1 protein kinase [1] = target: T1, Chk1 protein kinase (Homo sapiens, UniProt O14757); conditions: EDTA 10 mM or 20 mM added prior to enzyme addition; FIG. 8
Chk1 protein kinase [2] = target: T1, Chk1 protein kinase; conditions: EDTA 1 mM, 5 mM or 20 mM added before 21 mU Chk1; FIG. 11
Src kinase = Src kinase (Homo sapiens, UniProt P12931); assay: FRET assay of Src phosphorylation of rhodamine labelled SHPS-1 peptide, read by binding to SHP2-GFP; format: biochemical; conditions: 10 μM staurosporine added before the Src enzyme; FIG. 19
Procedure: These FRET-based assays are performed to measure Src kinase activity as determined by the Src kinase dependent formation of a complex between the SH2 domain of SHP2 labelled with a fluorophore and an synthetic peptide based on SHPS-1, also labelled with a fluorophore.
Interaction between the tandem SH2 domain of SHP2 and a synthetic peptide based on SHPS-1 is mediated by the state of phosphorylation of the peptide. A FRET partnership can be established between phosphorylated peptide and the SH2 domain providing both moieties are labelled with suitable fluorophores which are brought into close proximity upon interaction of binding partners. […]
SHP2-GFP was diluted to 0.5 μM in assay buffer (50 mM Tris HCL pH 7.2, 10 mM β-mercaptoethanol, 0.5 mg/ml BSA, 0.015% Brij 35). […] Initial readings of the fluorescence of the SHP2-GFP construct were made using 485 nm excitation wavelength and 520 nm emission wavelength. Rhodamine labelled peptide (2 μl of the above phosphorylation reactions) was added to the SHP2-GFP solution and formation of FRET was monitored in real-time by measuring the decrease in fluorescence emission of SHP2-GFP at 520 nm as shown in FIG. 17. […]

[3] = target: Yersinia protein tyrosine phosphatase (YOP) (Yersinia enterocolitica, UniProt P15273); format: biochemical; conditions: read-out: IC50 for inhibition of YOP
[4] = target: T2, PKA Peptide 2, labelled with biotin and bound to streptavidin, non-phosphorylated (biotin label (bound to streptavidin in the assay)); assay: fluorescence polarisation of coumarin labelled peptide 1 with biotin labelled peptide 2 on streptavidin
T2 construct: Coiled-coil forming peptide with a PKA phosphorylation site
T2 peptide: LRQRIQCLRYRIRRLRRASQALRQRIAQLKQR

T1 sequence (O14757 whole entry): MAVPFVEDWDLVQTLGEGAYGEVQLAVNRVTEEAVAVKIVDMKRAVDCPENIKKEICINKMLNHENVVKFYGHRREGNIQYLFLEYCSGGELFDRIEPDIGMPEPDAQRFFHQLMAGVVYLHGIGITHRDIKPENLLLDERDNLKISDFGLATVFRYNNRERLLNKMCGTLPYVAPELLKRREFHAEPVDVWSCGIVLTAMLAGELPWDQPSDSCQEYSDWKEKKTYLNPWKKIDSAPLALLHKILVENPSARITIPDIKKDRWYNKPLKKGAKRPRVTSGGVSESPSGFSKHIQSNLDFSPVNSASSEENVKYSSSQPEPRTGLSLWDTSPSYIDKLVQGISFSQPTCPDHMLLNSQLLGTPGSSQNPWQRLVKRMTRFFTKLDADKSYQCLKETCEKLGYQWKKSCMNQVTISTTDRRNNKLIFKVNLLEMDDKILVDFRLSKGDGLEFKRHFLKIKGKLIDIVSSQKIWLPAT
Chain of Src kinase (P12931 whole entry, the tested form may be a part): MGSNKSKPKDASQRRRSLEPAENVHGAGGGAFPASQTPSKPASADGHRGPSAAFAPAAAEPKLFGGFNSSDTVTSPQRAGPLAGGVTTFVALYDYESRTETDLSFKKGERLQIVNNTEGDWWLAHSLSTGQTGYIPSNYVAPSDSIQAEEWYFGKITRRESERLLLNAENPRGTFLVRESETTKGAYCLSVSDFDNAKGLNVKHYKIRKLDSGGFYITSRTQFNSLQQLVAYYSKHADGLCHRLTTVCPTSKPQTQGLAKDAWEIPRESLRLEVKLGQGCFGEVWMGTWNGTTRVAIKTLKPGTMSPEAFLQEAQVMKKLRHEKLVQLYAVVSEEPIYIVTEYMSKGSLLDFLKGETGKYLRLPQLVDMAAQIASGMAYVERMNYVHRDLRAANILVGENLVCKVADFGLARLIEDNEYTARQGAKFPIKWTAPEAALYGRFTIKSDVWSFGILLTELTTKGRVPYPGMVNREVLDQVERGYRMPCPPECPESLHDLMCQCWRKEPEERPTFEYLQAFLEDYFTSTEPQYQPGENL
Chain of Yersinia protein tyrosine phosphatase (YOP) (P15273 whole entry): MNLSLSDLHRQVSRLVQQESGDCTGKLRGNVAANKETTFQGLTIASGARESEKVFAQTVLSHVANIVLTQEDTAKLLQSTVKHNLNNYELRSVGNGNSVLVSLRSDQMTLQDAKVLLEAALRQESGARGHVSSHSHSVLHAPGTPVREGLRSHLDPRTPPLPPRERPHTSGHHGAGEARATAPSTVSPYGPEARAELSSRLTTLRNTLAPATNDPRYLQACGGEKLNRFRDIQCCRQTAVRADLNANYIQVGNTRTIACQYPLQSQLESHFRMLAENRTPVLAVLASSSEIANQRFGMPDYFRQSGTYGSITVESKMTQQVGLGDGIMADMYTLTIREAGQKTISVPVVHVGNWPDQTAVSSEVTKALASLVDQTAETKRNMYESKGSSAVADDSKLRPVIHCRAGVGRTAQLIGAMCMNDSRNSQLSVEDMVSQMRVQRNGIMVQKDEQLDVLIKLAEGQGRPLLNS

O=C(O)CN(CCN(CC(=O)O)CC(=O)O)CC(=O)O [EDTA]
Inhibition of Chk1 phosphorylation of Chktide peptide (end point) (Chk1 protein kinase [1]): inhibition | Inhibition of Chk1 phosphorylation of fluorescein labelled Chktide (real time) (Chk1 protein kinase [2]): inhibition

CN[C@@H]1C[C@H]2O[C@@](C)([C@@H]1OC)n1c3ccccc3c3c4c(c5c6ccccc6n2c5c31)C(=O)NC4 [staurosporine]
Inhibition of Src: formation of FRET partnership between SH2 domain of SHP2 and SHPS-1 peptide (Src kinase): failed to form a FRET partnership

[Na+].[Na+].[Na+].[O]=[V]([O-])([O-])[O-] [vanadate, Sodium orthovanadate]
IC50 [3]: 250 nM

B1: PKA Peptide 1, labelled with coumarin, non-phosphorylated (peptide)
peptide: EREIKALEREIRRLRRASQALEREIAQLERE
modifications: also: coumarin label, position not given here
notes: Coiled-coil forming peptide with a PKA phosphorylation site; also called coumarin labelled peptide 1
binding result [4]: binds
